Source: US10450306B2, “Isoxazole analogs as FXR agonists and methods of use thereof” (Enanta Pharmaceuticals, Inc., priority 2016, dated 2019)

Target: T1, human FXR (NR1H4) (Homo sapiens, UniProt Q96RI1)
T1 construct: host or cells: CHO (Chinese hamster ovary) reporter cells
T1 sequence (Q96RI1 1-486): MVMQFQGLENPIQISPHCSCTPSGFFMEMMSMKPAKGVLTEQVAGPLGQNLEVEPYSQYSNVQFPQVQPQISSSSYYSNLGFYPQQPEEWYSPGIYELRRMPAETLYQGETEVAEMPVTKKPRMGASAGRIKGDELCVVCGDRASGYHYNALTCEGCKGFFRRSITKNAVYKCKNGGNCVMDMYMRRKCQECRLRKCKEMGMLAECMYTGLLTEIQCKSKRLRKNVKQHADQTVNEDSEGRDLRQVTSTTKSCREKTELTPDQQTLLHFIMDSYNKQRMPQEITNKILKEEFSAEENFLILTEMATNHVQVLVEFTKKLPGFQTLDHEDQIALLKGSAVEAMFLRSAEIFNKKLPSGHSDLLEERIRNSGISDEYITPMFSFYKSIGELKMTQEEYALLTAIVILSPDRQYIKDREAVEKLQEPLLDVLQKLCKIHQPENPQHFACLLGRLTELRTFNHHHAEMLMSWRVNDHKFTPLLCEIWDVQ
Assay: Human FXR (NR1H4) Assay: Gal4 promoter driven luciferase reporter transactivation in CHO cells (Indigo Bioscience kit IB00601); as to Efficacy (%): efficacy normalized to CDCA set as 100%
Assay type: cell-based
Conditions: for Emax: CHO, read-out: Efficacy (%); for EC50: Human FXR (NR1H4) reporter assay, potency ranges
Description: Human FXR (NR1H4) Assay Determination of a ligand mediated Gal4 promoter driven transactivation to quantify ligand binding mediated activation of FXR. FXR Reporter Assay kit purchased from Indigo Bioscience (Catalogue number: IB00601) to determine the potency and efficacy of compound developed by Enanta that can induce FXR activation. The principle application of this reporter assay system is to quantify functional activity of human FXR. The assay utilizes non-human mammalian cells, CHO (Chinese hamster ovary) cells engineered to express human NR1H4 protein (referred to as FXR). Reporter cells also incorporate the cDNA encoding beetle luciferase which catalyzes the substrates and yields photon emission. Luminescence intensity of the reaction is quantified using a plate-reading luminometer, Envision. Reporter Cells include the luciferase reporter gene functionally linked to an FXR responsive promoter. Thus, quantifying changes in luciferase expression in the treated reporter cells provides a sensitive surrogate measure of the changes in FXR activity. […] The assay is according to the manufacturer's instructions. In brief, the assay was performed in white, 96 well plates using final volume of 100 ul containing cells with different doses of compounds. Retrieve Reporter Cells from −80° C. storage. Perform a rapid thaw of the frozen cells by transferring a 10 ml volume of 37° C. cell recovery medium into the tube of frozen cells. Recap the tube of Reporter Cells and immediately place it in a 37° C. water bath for 5-10 minutes. Retrieve the tube of Reporter Cell Suspension from the water bath. Sanitize the outside surface of the tube with a 70% alcohol swab, and then transfer it into the cell culture hood. Dispense 90 μl of cell suspension into each well of the 96-well Assay Plate. Transfer the plate into 37° C. incubator, allowing the cells adherent to the bottom of the well. Dilute compounds in Dilution Plate (DP), and administrate to cells at Assay Plate (AP). DMSO content of the samples was kept at 0.2%. Cells were incubated for additional 22 hours before luciferase activities were measured. Thirty minutes before intending to quantify FXR activity, remove Detection Substrate and Detection Buffer from the refrigerator and place them in a low-light area so that they may equilibrate to room temperature. Remove the plate's lid and discard all media contents by ejecting it into an appropriate waste container. Gently tap the inverted plate onto a clean absorbent paper towel to remove residual droplets. Cells will remain tightly adhered to well bottoms. Add 100 ul of luciferase detection reagent to each well of the assay plate. Allow the assay plate to rest at room temperature for at least 5 minutes following the addition of LDR. Set the instrument (Envision) to perform a single 5 second “plate shake” prior to reading the first assay well. Read time may be 0.5 second (500 mSec) per well.

Row | SMILES | Emax [%] | EC50 [nM]
1 | Cc1cc2nc(N3C4CCC3CC(NCc3c(-c5c(Cl)cccc5Cl)noc3C3CC3)C4)sc2cc1C(=O)NS(=O)(=O)C1(C)CC1 (centres unmarked) [Example 400-11] | 79.3 | < 1
2 | CC(C)Oc1cc(C(=O)NS(=O)(=O)C2(C)CC2)cc2sc(N3C4CCC3CC(NCc3c(-c5ccccc5C(F)(F)F)noc3C3CC3)C4)nc12 (centres unmarked) [Example 1402] | 136 | 1 to 100
3 | Cc1cc2nc(N3C4CCC3CC(NCc3c(-c5c(Cl)cccc5Cl)noc3C3CC3)C4)sc2cc1C(=O)NS(=O)(=O)N1CCCCC1 (centres unmarked) [Example 400-12] | 115 | < 1
4 | CC(C)Oc1cc(C(=O)NS(=O)(=O)N2CCCC2)cc2sc(N3CCC(NCc4c(-c5c(Cl)cccc5Cl)noc4C4CC4)CC3)nc12 [Example 400-5] | 110 | 1 to 100
5 | O=C(O)c1ccc(N2C3CCC2CC(NCc2c(-c4c(Cl)cccc4Cl)noc2C2CC2)C3)c(F)c1 [Example 122, 4-((1R,3r,5S)-3-(((5-cyclopropyl-3-(2,6-dichlorophenyl)isoxazol-4-yl)methyl)amino)-8-azabicyclo[3.2.1]octan-8-yl)-3-fluorobenzoic acid] | 90 | 1 to 100
6 | CC(C)Oc1cc(C(=O)O)cc2sc(N3C4CCC3CC(NCc3c(-c5c(F)cccc5F)noc3C3CC3)C4)nc12 (centres unmarked) [Example 1426] | 73.2 | 100 to 1000
7 | O=C(O)c1ccc2nc(N3CCN(Cc4c(-c5c(Cl)cccc5Cl)noc4C4CC4)CC3)sc2c1 [Example 172] | 257 | 100 to 1000
8 | COC(=O)c1cc(C2CC2)c2nc(N3C4CCC3CC(NCc3c(-c5ccccc5OC(F)(F)F)noc3C3CC3)C4)sc2c1 (centres unmarked) [Example 643] | 52 | 1 to 100
9 | O=C(O)c1cc(F)c2nc(N3CCC(NCc4c(-c5ccccc5OC(F)(F)F)noc4C4CC4)CC3)sc2c1 [Example 642] | 85.3 | 100 to 1000
10 | O=C(O)c1ccc2nc(N3C4CCC3CC(NCc3c(-c5ccccc5C(F)(F)F)noc3C3CC3)C4)sc2c1 (centres unmarked) [Example 1413] | 90.7 | 1 to 100
11 | O=C(NS(=O)(=O)N1CCCCC1)c1cc(F)c2nc(N3CCC(NCc4c(-c5c(Cl)cccc5Cl)noc4C4CC4)CC3)sc2c1 [Example 400-8] | 79 | 1 to 100
12 | COC(=O)c1cc(C)c2nc(N3C4CCC3CC(NCc3c(-c5ccccc5C(F)(F)F)noc3C3CC3)C4)sc2c1 (centres unmarked) [Example 1404] | 46 | 100 to 1000
13 | O=C(O)c1cc2sc(N3C4CCC3CC(NCc3c(-c5c(Cl)cccc5Cl)noc3C3CC3)C4)nc2c2ccccc12 (centres unmarked) [Example 200-28] | 132 | < 1
14 | CC1(S(=O)(=O)NC(=O)c2cc(C3CC3)c3nc(N4C5CCC4CC(NCc4c(-c6c(Cl)cccc6Cl)noc4C4CC4)C5)sc3c2)CC1 (centres unmarked) [Example 400-35] | 117 | 1 to 100
15 | CC1(S(=O)(=O)NC(=O)c2cnc3nc(N4C5CCC4CC(NCc4c(-c6c(Cl)cccc6Cl)noc4C4CC4)C5)sc3n2)CC1 (centres unmarked) [Example 400-26] | 97.2 | < 1
16 | Fc1cc(-c2nn[nH]n2)ccc1N1C2CCC1CC(NCc1c(-c3c(Cl)cccc3Cl)noc1C1CC1)C2 (centres unmarked) [Example 138] | 155 | < 1
17 | O=C(NS(=O)(=O)N1CCCC1)c1cc(F)c2nc(N3CCC(NCc4c(-c5c(Cl)cccc5Cl)noc4C4CC4)CC3)sc2c1 [Example 400-7] | 91 | 1 to 100
18 | O=C(NS(=O)(=O)C1CC1)c1ccc(N2C3CCC2CC(NCc2c(-c4c(Cl)cccc4Cl)noc2C2CC2)C3)nc1 (centres unmarked) [Example 400-37] | 82.5 | 1 to 100
19 | COC(=O)c1ccc2nc(N3C4CCC3CC(NCc3c(-c5c(Cl)cccc5Cl)noc3C3CC3)C4)sc2c1Br (centres unmarked) [Example 200-21] | 58 | 1 to 100

Row | SMILES | Emax [%] | EC50 [nM]
20 | CCOC(=O)c1ccc2nc(N3C4CCC3CC(NCc3c(-c5ccccc5OC(F)(F)F)noc3C3CC3)C4)sc2c1 (centres unmarked) [Example 696] | 59.1 | 1 to 100
21 | COC(=O)c1cc(OC(C)C)c2nc(N3C4CCC3CC(NCc3c(-c5c(F)cccc5F)noc3C3CC3)C4)sc2c1 (centres unmarked) [Example 1423] | 78 | > 1000
22 | COc1nc2cc(C(=O)O)ccc2nc1N1C2CCC1CC(NCc1c(-c3c(Cl)cccc3Cl)noc1C1CC1)C2 (centres unmarked) [Example 198] | 140 | 1 to 100
23 | CC1(S(=O)(=O)NC(=O)c2ccc(N3C4CCC3CC(NCc3c(-c5ccccc5OC(F)(F)F)noc3C3CC3)C4)nc2)CC1 (centres unmarked) [Example 900-14] | 46.5 | 100 to 1000
24 | COC(=O)c1ccc2nc(N3C4CCC3CC(NCc3c(-c5c(Cl)cccc5Cl)noc3C3CC3)C4)c(Cl)nc2c1 (centres unmarked) [Example 199] | 58 | 100 to 1000
25 | CC1(S(=O)(=O)NC(=O)c2ccc3nc(N4C5CCC4CC(NCc4c(-c6c(Cl)cccc6Cl)noc4C4CC4)C5)sc3c2)CC1 (centres unmarked) [Example 202] | 279 | < 1
26 | CC(C)(C)OC(=O)CNC(=O)c1cc(F)c2nc(N3C4CCC3CC(NCc3c(-c5c(Cl)cccc5Cl)noc3C3CC3)C4)sc2c1 [Example 95, tert-butyl (2-((1R,3r,5S)-3-(((5-cyclopropyl-3-(2,6-dichlorophenyl)isoxazol-4-yl)methyl)amino)-8-azabicyclo[3.2.1]octan-8-yl)-4-fluorobenzo[d]thiazole-6-carbonyl)glycinate] | 128 | 1 to 100
27 | CC1(S(=O)(=O)NC(=O)c2ccc3nc(N4C5CCC4CC(NCc4c(-c6ccccc6C6CC6)noc4C4CC4)C5)sc3c2)CC1 (centres unmarked) [Example 1422] | 94 | 1 to 100
28 | COC(=O)c1cc(C2CC2)c2nc(N3C4CCC3CC(NCc3c(-c5ccccc5C(F)(F)F)noc3C3CC3)C4)sc2c1 (centres unmarked) [Example 1409] | 52 | 1 to 100
29 | CCOC(=O)c1ccc2nc(N3C4CCC3CC(NCc3c(-c5ccccc5C(F)(F)F)noc3C3CC3)C4)sc2c1 (centres unmarked) [Example 1412] | 75 | 100 to 1000
30 | COc1cc(C(=O)NS(=O)(=O)C2(C)CC2)cc2sc(N3C4CCC3CC(NCc3c(-c5c(Cl)cccc5Cl)noc3C3CC3)C4)nc12 (centres unmarked) [Example 304] | 139 | < 1
31 | CN(C)S(=O)(=O)NC(=O)c1ccc2nc(N3C4CCC3CC(NCc3c(-c5c(Cl)cccc5Cl)noc3C3CC3)C4)oc2c1 (centres unmarked) [Example 301] | 63 | < 1
32 | O=C(O)c1cc(C2CC2)c2nc(N3C4CCC3CC(NCc3c(-c5ccccc5OC(F)(F)F)noc3C3CC3)C4)sc2c1 (centres unmarked) [Example 644] | 94.5 | < 1
33 | O=C(NS(=O)(=O)C1CC1)c1cc(F)c(N2C3CCC2CC(NCc2c(-c4ccccc4OC(F)(F)F)noc2C2CC2)C3)c(F)c1 (centres unmarked) [Example 900-11] | 70.5 | 1 to 100
34 | CC(C)Oc1cc(C(=O)O)cc2sc(N3CCC(NCc4c(-c5ccccc5OC(F)(F)F)noc4C4CC4)CC3)nc12 [Example 640] | 92.3 | 1 to 100
35 | O=C(O)c1cc2sc(N3C4CCC3CC(NCc3c(-c5c(Cl)cccc5Cl)noc3C3CC3)C4)nc2cc1-c1ccccc1 (centres unmarked) [Example 200-24] | 96.2 | 1 to 100
36 | CC(C)Oc1cc(C(=O)NS(=O)(=O)N2CCCCC2)cc2sc(N3CCC(NCc4c(-c5c(Cl)cccc5Cl)noc4C4CC4)CC3)nc12 [Example 400-6] | 73.5 | 1 to 100
37 | CC1(S(=O)(=O)NC(=O)c2ccc3nc(N4CCC(NCc5c(-c6ccccc6OC(F)(F)F)noc5C5CC5)CC4)sc3c2)CC1 [Example 900-1] | 80.5 | 100 to 1000
